Legend:
Assay in all cases: Growth inhibition of transformed PPO-deficient E. coli BT3(ΔPPO) on LB agar medium
wild-type AtPPO1 = molecular target: T1, wild-type AtPPO1 (Arabidopsis thaliana, UniProt P55826); type: cell-based
T1 construct: expressed in transfected cells; host or cells: E. coli BT3(ΔPPO), pACBB vector
T1 sequence (P55826 35-537): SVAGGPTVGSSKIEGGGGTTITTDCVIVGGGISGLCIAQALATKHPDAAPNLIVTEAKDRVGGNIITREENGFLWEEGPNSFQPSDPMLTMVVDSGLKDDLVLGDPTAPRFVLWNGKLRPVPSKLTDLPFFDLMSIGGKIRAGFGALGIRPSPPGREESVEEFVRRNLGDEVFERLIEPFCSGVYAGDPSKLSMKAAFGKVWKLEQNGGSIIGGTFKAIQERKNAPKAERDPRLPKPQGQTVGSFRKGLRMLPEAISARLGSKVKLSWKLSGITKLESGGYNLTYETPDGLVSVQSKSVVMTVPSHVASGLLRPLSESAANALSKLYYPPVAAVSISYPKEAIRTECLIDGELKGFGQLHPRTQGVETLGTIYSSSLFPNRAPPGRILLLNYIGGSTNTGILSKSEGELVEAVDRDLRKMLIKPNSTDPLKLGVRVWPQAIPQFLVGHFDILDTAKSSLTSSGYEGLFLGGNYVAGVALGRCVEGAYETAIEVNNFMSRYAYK
From the text: (§1) To test herbicide resistance of CyPPO2, CyPPO4, CyPPO8 and CyPPO12 isolated in Example 1, PPO-deficient BT3 E. coli [hereinafter, referred to as BT3(ΔPPO)] was transformed with CyPPO2, CyPPO4, CyPPO8 or CyPPO12 gene, respectively and then cultured in the presence of herbicides to examine growth inhibition of the transformed E. coli. As a negative control, Arabidopsis thaliana-derived wild-type PPO (wild-type AtPPO1) was used, and wild-type AtPPO1 has sensitivity to PPO-based herbicides and its sequence information is available in GeneBank accession no. AX084732 (a nucleotide sequence of the gene is represented by SEQ ID NO: 10, and an amino acid sequence thereof is represented by SEQ ID NO: 9). As a positive control, Mutant AtPPO1 was used, in which amino acid replacements of Y426M (replacement of tyrosine by methionine at position 426) and S305L (replacement of serine by leucine at position 305) occur in the amino acid sequence of the wild-type AtPPO1 (an amino acid sequence is represented by SEQ ID NO: 11) (Li X, Volrath S L., N D B. G., Chilcott C E, Johnson M A, Ward E R, Law M D (2003) Development of protoporphyrinogen oxidase as an efficient selection marker for Agrobacterium tumefaciens-mediated transformation of maize. Plant physiology 133:736-747).
(§2) BT3(ΔPPO) strain was provided by Hokkaido University (Japan) and it is an E. coli strain which is deficient in hemG-type PPO and has Kanamycin resistance (Watanabe et al., (2001) Dual targeting of spinach protoporphyrinogen oxidase II to mitochondria and chloroplasts by alternative use of two in-frame […] codons. JBC 2047420481).
(§3) HVE-50 autoclave from Hirayama, HS2100A electronic scale from Hansung Instrument, CB-30V clean bench from Jeio Tech, JSI-200CL incubator from JSR, 1210 type UV-visible spectrophotometer from Thermo Fisher Scientific, MQ-200 photometer from Apogee, and Bio-Rad MyCycler as PCR machine were used. The autoclave was used under conditions of 121° C. and 15 minutes, and the incubator was used at 37° C. with lighting of 160˜200 μmol m^−2 s^−1 for a culture time of 14˜20 hours. LB medium (10 g/L of Bacto-Tryptone, 5 g/L of Yeast extract, 10 g/L of sodium chloride, 15 g/L of Bacto agar) and an antibiotic Chloramphenicol (Duchefa) were used.
(§4) To clone each of the CyPPO2, CyPPO4, CyPPO8 and CyPPO12 genes isolated and amplified in Example 1 into pACBB (its structure is shown in FIG. 2), 10 μl of a solution containing 4 μl of each PPO gene, […], 1 μl of 10× buffer A, 1 μl of 10× buffer B, 1 μl of ligase (RBC, 3 unit/μl) was prepared and allowed to react at 22° C. for 30 minutes. The reaction solution was added to 100 μl of DH5 alpha competent cells, and allowed to react on ice for 20 minutes and then left at 42° C. for 40 seconds. Thereafter, the cells were left on ice for 2 minutes, and then 1 ml of LB broth was added thereto, followed by incubation with shaking at 37° C. for 1 hour. The strains having each gene insert in the culture medium were harvested, and then cultured on LB agar medium containing chloramphenicol.
(§5) For seed culture of E. coli transformed with respective genes, single colonies thereof were cultured in 3 ml of LB broth containing chloramphenicol overnight, and each 100 μl thereof was sub-cultured in 3 ml of fresh LB broth until absorbance (OD600) reached 0.5˜1. They were diluted with LB broth to absorbance (OD600) of 0.5. 10-fold dilution of this diluted solution was performed with LB broth five times. Next, 10 μl of the diluted solution of the transformed E. coli culture was dropped on LB agar medium (petri dish) containing chloramphenicol and a variety of herbicide stocks at different concentrations (0˜400 μM). The LB agar plates were incubated at 37° C. At 16˜20 hours after culture, growth inhibition was examined with the naked eye. Further, growth inhibition of the strains cultured in a medium containing Tiafenacil was examined under light (lighting of 169 μmol m^−2s^−1) and dark conditions.

Mutant AtPPO1 = molecular target: T2, Mutant AtPPO1 (Arabidopsis thaliana, UniProt P55826, S305L/Y426M); type: cell-based; details: 37° C., 16~20 hours
T2 construct: expressed in transfected cells; host or cells: E. coli BT3(ΔPPO), pACBB vector
From the text: as §1, §2, §3, §4, §5

CyPPO4 = type: cell-based, Lyngbya sp. PCC 8106; details: 37° C., 16~20 hours
From the text: as §1, §2, §3, §4, §5

CyPPO12 = type: cell-based, Microcoleus vaginatus; details: 37° C., 16~20 hours
From the text: as §1, §2, §3, §4, §5

[1] = LB agar medium, 37° C., 16~20 hours

T2 sequence (P55826 35-537 S305L/Y426M): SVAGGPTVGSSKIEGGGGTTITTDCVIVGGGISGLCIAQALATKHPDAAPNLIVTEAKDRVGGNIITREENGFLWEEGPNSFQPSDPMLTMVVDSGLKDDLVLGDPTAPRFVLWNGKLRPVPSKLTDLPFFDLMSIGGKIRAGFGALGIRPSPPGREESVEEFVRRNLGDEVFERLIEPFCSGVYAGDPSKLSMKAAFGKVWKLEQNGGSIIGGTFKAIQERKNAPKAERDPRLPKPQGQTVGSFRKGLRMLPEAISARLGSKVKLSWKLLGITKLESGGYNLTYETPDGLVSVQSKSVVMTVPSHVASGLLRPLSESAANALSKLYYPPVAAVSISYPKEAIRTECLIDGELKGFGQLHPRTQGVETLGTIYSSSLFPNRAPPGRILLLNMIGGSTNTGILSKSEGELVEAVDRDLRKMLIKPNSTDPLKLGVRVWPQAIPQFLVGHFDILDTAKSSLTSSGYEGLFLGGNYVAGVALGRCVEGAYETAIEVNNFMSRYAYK

| Structure (SMILES) | concentration at which growth inhibition was not / hardly observed (Mutant AtPPO1) | concentration at which growth inhibition was hardly observed (CyPPO4) | concentration at which growth inhibition was not / hardly observed (CyPPO12) | also measured |
| --- | --- | --- | --- | --- |
| CS(=O)(=O)NC(=O)c1cc(Oc2ccc(C(F)(F)F)cc2Cl)ccc1[N+](=O)[O-] [Fomesafen] | ≤ 25 µM | 400 µM | – | concentration at which growth inhibition was observed (wild-type AtPPO1; [1]): 5 µM |
| Cc1nn(-c2cc(NS(C)(=O)=O)c(Cl)cc2Cl)c(=O)n1C(F)F [Sulfentrazone] | 25 µM | 400 µM | 25 µM | concentration at which growth inhibition began (wild-type AtPPO1; [1]): 0.5 µM |
| CCOc1cc(Oc2ccc(C(F)(F)F)cc2Cl)ccc1[N+](=O)[O-] [Oxyfluorfen] | – | 400 µM | – | concentration at which growth inhibition began (Mutant AtPPO1): 5 µM |
| CC(C)N(C)S(=O)(=O)NC(=O)c1cc(-n2c(=O)cc(C(F)(F)F)n(C)c2=O)c(F)cc1Cl [Saflufenacil] | 25 µM | 25 µM | 25 µM | – |
| CC(C)=C1OC(=O)N(c2cc(OC3CCCC3)c(Cl)cc2F)C1=O [Pentoxazone] | 25 µM | – | 25 µM | – |
| C#CCN(C)c1c(C#N)cnn1-c1nn2c(c1Cl)CCCC2 [Pyraclonil] | 25 µM | – | 25 µM | concentration at which the strain hardly grew (wild-type AtPPO1; [1]): 25 µM |
| C=CCOC(=O)C(C)(C)OC(=O)c1cc(-n2c(=O)cc(C(F)(F)F)n(C)c2=O)ccc1Cl [Butafenacil] | 25 µM | – | – | – |
| COC(=O)CCNC(=O)C(C)Sc1cc(-n2c(=O)cc(C(F)(F)F)n(C)c2=O)c(F)cc1Cl (stereo not drawn) [Tiafenacil] | 25 µM | 25 µM | 25 µM | growth at 1 μM under dark condition (wild-type AtPPO1; agar medium, 1 μM, dark condition): rather maintained; concentration at which growth was completely inhibited (wild-type AtPPO1; agar medium, both light and dark conditions): ≥ 5 µM; concentration at which growth was almost completely inhibited (wild-type AtPPO1; agar medium, light condition): 1 µM |
| C#CCN1C(=O)COc2cc(F)c(N3C(=O)C4=C(CCCC4)C3=O)cc21 [Flumioxazin] | – | 25 µM | 25 µM | – |
| CCOC(=O)COc1cc(-c2nn(C)c(OC(F)F)c2Cl)c(F)cc1Cl [Pyraflufen-ethyl] | 25 µM | – | 25 µM | concentration at which growth inhibition began (wild-type AtPPO1; [1]): 0.5 µM |
| O=C(O)c1cc(Oc2ccc(C(F)(F)F)cc2Cl)ccc1[N+](=O)[O-] [Acifluorfen] | – | 400 µM | – | – |
| CC(C)Oc1cc(-n2nc(C(C)(C)C)oc2=O)c(Cl)cc1Cl [Oxadiazon] | 25 µM | – | 25 µM | concentration at which growth inhibition began (wild-type AtPPO1; [1]): 0.5 µM |

From patent publication US11130960B2, “Methods for conferring or enhancing herbicide resistance on plants and/or alga with protoporphyrinogen oxidase variants” (FARM HANNONG CO., LTD., priority 2014, dated 2021)
